Experimental data from paper PMC11857530, “Antioxidant Peptides from Miiuy Croaker Swim Bladders: Ameliorating Effect and Mechanism in NAFLD Cell Model through Regulation of Hypolipidemic and Antioxidant Capacity” (Marine Drugs, 2025).
Where no end group is shown, it is not given here.

Key:
pancreatic lipase (PL) = target: T1, pancreatic lipase (PL) (Sus scrofa, UniProt P00591); assay: Pancreatic lipase (PL) inhibitory activity; type: biochemical; settings: PNPB substrate, 15 min pre-incubation, 20 min, 37 °C; absorbance 405 nm
T1 construct: purchased Solarbio Life Sciences Co., Ltd. (Beijing, China)
T1 sequence (P00591 1-450): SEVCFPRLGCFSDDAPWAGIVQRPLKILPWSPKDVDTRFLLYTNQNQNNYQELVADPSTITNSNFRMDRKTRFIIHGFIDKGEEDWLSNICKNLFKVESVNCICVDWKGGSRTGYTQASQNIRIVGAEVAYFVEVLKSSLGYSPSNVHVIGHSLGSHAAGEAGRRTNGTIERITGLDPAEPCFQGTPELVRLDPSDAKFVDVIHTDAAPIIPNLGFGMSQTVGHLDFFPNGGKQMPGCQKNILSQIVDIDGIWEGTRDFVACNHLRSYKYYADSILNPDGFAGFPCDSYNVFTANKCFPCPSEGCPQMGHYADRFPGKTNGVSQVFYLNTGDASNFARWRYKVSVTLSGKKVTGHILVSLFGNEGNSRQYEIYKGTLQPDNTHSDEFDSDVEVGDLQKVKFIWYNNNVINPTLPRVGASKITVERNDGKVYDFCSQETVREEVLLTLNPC
Description: Sodium taurocholate, pancreatic lipase, cholesterol esterase, and Tris buffer solution were purchased from Solarbio Life Sciences Co., Ltd. (Beijing, China). […] P-nitrophenyl butyrate (PNPB) was purchased from Shanghai Macleans Biochemical Co., Ltd. (Shanghai, China).
The in vitro pancreatic lipase (PL) inhibitory activity was measured using the method of Cai et al. [78], with slight modifications. Pancreatic lipase was first dissolved in 100 mM Tris buffer (2 mg/mL) and the supernatant was obtained by centrifugation. Tris buffer was then prepared as 0.1% (w/v) PNPB solution. The 50 μL peptide sample was incubated with 50 μL Tris buffer solution and 50 μL pancreatic lipase solution at 37 °C for 15 min, and then 100 μL PNPB solution was added. After 20 min at 37 °C, the absorbance value was measured at 405 nm. In the blank group, pure water was used instead of a sample. In the blank control group, the samples were replaced with pure water and the pancreatic lipase solution was replaced with a buffer solution. […] The pancreatic lipase (PL) inhibitory rate was calculated using the following formula:PL inhibitory rate (%) = [1 − (A − A0)/(B − B0)] × 100%(2) where A, A0, B, and B0 are the absorbance values determined at 405 nm of the sample, the sample control, the blank, and the blank control after the reaction, respectively.

OA-induced HepG2 cells = assay: Intracellular ROS level (DCFH-DA), OA-induced NAFLD cell model; type: cell-based, human; settings: pretreated, compared to model group; concentration not given
Description: The OA-induced NAFLD cell model was established according to previous methods. HepG2 cells in the logarithmic growth phase were seeded into 96-well plates and cultivated in a humidified atmosphere of 5% CO2 at 37 °C for 24 h. OA was dissolved in 10% BSA and added to the DMEM with a final concentration of 80 μM. After this, the cells were cultured for 24 h, and the morphologies of the HepG2 cells were observed and photographed using a microscope. The HepG2 cells in the control wells were cultured for 24 h in DMEM without OA.
The ROS level was determined by the dichlorodihydrofluorescein diacetate (DCFH-DA) staining method. Briefly, HepG2 cells were seeded in 12-well plates and DCFH-DA was diluted to a final concentration of 10 μM at a ratio of 1:1000. Next, after the removal of the cell culture medium, the cells were washed three times with PBS. After this, the HepG2 cells were incubated with 10 μM DCFH-DA for 30 min at 37 °C. After washing with PBS three times again, the fluorescence of the HepG2 cells was monitored at 485 nm excitation (535 nm emission). Finally, images were acquired using a fluorescence microscope to observe the fluorescence intensity of DCFH-DA.

[1] = system: AMP-activated protein kinase (AMPK) pathway; settings: via AMPK pathway; ref [58],[61]; cited from earlier work
Excerpt: (§1) Modern unhealthy lifestyles, especially a HFD and lack of exercise, lead to the large accumulation of lipids in the human body, and the excess FFAs overloaded in the body are transferred from the bloodstream to the liver. If the rate of lipid oxidation is far slower than the synthesis rate, the large amounts of lipids accumulated in the liver will result in lipid metabolism disorder, steatosis, and ultimately the development of NAFLD [4, 58].

[2] = system: liver dysfunction caused by hyperglycemia; settings: ref [29]; cited from earlier work
Excerpt: (§2) Bioactive peptides (BPs) have been produced from diverse plant and animal proteins, such as mammals, poultry, beans, mollusks, fish, Antarctic krill, algae, etc. Beyond their important nutritional benefits, BPs show remarkable bioactivity and pharmacological functions, with numerous potential applications for human health. […] For example, GINY and DQW from α-lactalbum ...

HepG2 cells = assay: MTT viability of HepG2 cells; type: cell-based, human; settings: 100 μM, 24 h
Description: HepG2 human hepatoma cell line was purchased from Shanghai Cell Bank, Chinese Academy of Sciences. HepG2 cells were cultured in DMEM containing […] streptomycin, 50 U/mL penicillin, 2 mM glutamine, and 10% FCS in a humidified atmosphere of 5% CO2 at 37 °C.
The viability of the HepG2 cells was evaluated using the MTT assay via a previous method. In brief, S7 and S10 were dissolved in growth medium to form a peptide solution with a concentration of 200 μM. Then, the peptide solution was added to the growth medium of HepG2 cells with final concentrations of 10, 50, and 100 μM, and the cells were incubated for 24 h with peptide administration. The control group was treated with the growth medium without peptides. SV (1.0 mM) was used as a positive control.

LXRα/SREBPs/HMGR pathway = settings: via LXRα/SREBPs/HMGR pathway; ref [59],[60]; cited from earlier work
Excerpt: as §1

PPARα pathway = settings: activating PPARα pathway; ref [26],[27]; cited from earlier work
Excerpt: as §2

FFA-damaged HepG2 cells = settings: regulating PERK/eIF2α and PERK/IκBα pathways; ref [28]; cited from earlier work
Excerpt: as §2

FSGLR [S7]
IC50 (pancreatic lipase (PL)): 1670 µM

CC(=O)N[C@@H](CS)C(=O)O [NAC]
ROS fluorescence intensity (OA-induced HepG2 cells): showed varying degrees of decrease compared to the model group

IRWWW [antioxidant peptide from Miichthys miiuy muscle]
TG and TC content [1]: decrease the content of TG and TC

GIEWA [S10]
IC50 (pancreatic lipase (PL)): 1290 µM

VHVV [A tetrapeptide (VHVV) from soy]
Effect on liver dysfunction [2]: strong preventive effect on liver dysfunction caused by hyperglycemia

VPDDD [S9, antioxidant peptide separated from swim bladder hydrolysate of the miiuy croaker]
Viability of HepG2 cells vs control (HepG2 cells): remarkably lower than that of the control (p < 0.05)

VFVRN [derived from chickpea protein hydrolysate]
Hypolipidemic activity (LXRα/SREBPs/HMGR pathway): strong hypolipidemic activity

GINY [peptide from α-lactalbumin]
Alleviation of NAFLD (PPARα pathway): decrease lipid deposition and oxidative stress

VIAPW [antioxidant peptide from Miichthys miiuy muscle]
TG and TC content [1]: decrease the content of TG and TC

VLATSGPG [VLATSGPG (VLA), peptide from salmon skins]
Lipid content and inflammation (FFA-damaged HepG2 cells): decrease the lipid content and inflammation
